Source: patent US20260159536A1, “AKR1C3-ACTIVATED DNA ALKYLATING AGENT, AND MEDICAL APPLICATION THEREOF” (ASCENTAWITS PHARMACEUTICALS, LTD., priority 2021, published 2026)
Values joined by “and” are separate entries in the source; they are usually repeats but may differ in a detail not shown here. Equal values may be shown once. Read-outs that look alike come from different tables or passages of the source.

What was measured:
[1] = Blood-brain barrier assay of Compound A (plasma and brain concentration, PK); type: in vivo, CD-1 mice; conditions: for concentration at 0.083 h / concentration at 0.25 h / concentration at 1 h / concentration at 2 h / concentration at 4 h / concentration at 8 h / Kp at 0.083 h / Kp at 0.25 h / Kp at 1 h / Kp at 2 h / Kp at 4 h / Kp at 8 h / Brain concentration / Plasma concentration / Ratio (Brain/Plasma): IV 1 mg/kg; for MRT inf: read-out: MRTInf_obs; for half-life: read-out: T½ (converted)
Method: Three CD-1 mice were administered 1 mg/kg of the test Compound A intravenously at each time point. Blood and brain tissue were taken at 5 min, 15 min, 1 h, 2 h, 4 h and 8 h after administration.
The PK (Pharmacokinetic) parameters obtained from the above assays were listed as follows, as shown in Table 33 and Table 34. • PK parameters, pharmacokinetic parameters. • T1/2, half-life. • Cl-obs, plasma clearance. • C0, starting concentration. • AUClast, area under the concentration-time curve from start of administration time to the last point. • AUCInf, area under the concentration-time curve from start of administration to the time at infinity. • Tmax, time to maximum observed plasma concentration. • Cmax, concentration to maximum observed plasma concentration. • MRTlnf-obs, represents the mean residence time from the start of administration to the time of theoretical extrapolation to infinity. • AUClnf Ration (Brain/Plasma), the ratio of the area under the concentration-time curve of serum and brain tissue from the start of administration to the time at infinity. • Unit, unit. • Mean, average value.

[2] = test system: HuPrime model LI6280 human liver cancer; assay: In vivo pharmacodynamics, liver cancer LI6280 PDX model; parameters: species or system BALB/c nude mice; conditions: for Tumor volume: 4.5 mg/kg i.v.
Method: Experiment Instruction: BALB/c nude mice were subcutaneously inoculated with HuPrime® model LI6280 tumour blocks to establish a subcutaneous transplantation tumour model of human liver cancer. […] The efficacy was evaluated according to the relative tumor inhibition rate TGI (%), and the safety was evaluated according to the change in body weight and the death of the animals.

[3] = MTD assay and toxicokinetics of Compound A, single 30 min intravenous infusion
[4] = Plasma stability test, monkey; type: in vitro ADME; conditions: 37° C.
Method: The pH of the plasma was checked and recorded. Note: a.
The final concentration of solvent was 0.5%.
The assay was performed in duplicate. […] The tubes were mixed by vortex for 5 minutes.

[5] = CD-1, mouse, iv, brain tissues, 1 mg/kg intravenously, Mean
[6] = CD-1, mouse, iv, plasma, 1 mg/kg intravenously, Mean
[7] = 0.083 h, individual animals, 1 mg/kg
[8] = 0.25 h, individual animals, 1 mg/kg
[9] = 1 h, individual animals, 1 mg/kg
[10] = 2 h, individual animals, 1 mg/kg
[11] = 4 h, individual animals, 1 mg/kg
[12] = 8 h, individual animals, 1 mg/kg
[13] = brain tissues, 1 mg/kg intravenously, Mean
[14] = plasma, 1 mg/kg intravenously, Mean

O=[N+]([O-])c1ccc(C(OP(=O)(N2CC2)N2CC2)C(F)(F)F)cc1Oc1ccc(-c2ccc(F)cc2)c(F)c1 (racemic) [Compound A]
blood-brain barrier penetration ([1]; 1 mg/kg intravenously, within 8 hours): can effectively penetrate the blood-brain barrier | concentration at 0.083 h ([1]; CD-1, mouse, brain, iv, 1 mg/kg, 0.083 h, individual animals, read-out: Brain concentration): 538 ng/g | concentration at 0.25 h ([1]; CD-1, mouse, brain, iv, 1 mg/kg, 0.25 h, individual animals, read-out: Brain concentration): 419 ng/g | concentration at 1 h ([1]; CD-1, mouse, brain, iv, 1 mg/kg, 1 h, individual animals, read-out: Brain concentration): 180 ng/g | concentration at 2 h ([1]; CD-1, mouse, brain, iv, 1 mg/kg, 2 h, individual animals, read-out: Brain concentration): 107 ng/g | concentration at 4 h ([1]; CD-1, mouse, brain, iv, 1 mg/kg, 4 h, individual animals, read-out: Brain concentration): 71.2 ng/g | concentration at 8 h ([1]; CD-1, mouse, brain, iv, 1 mg/kg, 8 h, individual animals, read-out: Brain concentration): 23.6 ng/g | Kp ([1]; CD-1, mouse, brain/plasma, iv, 1 mg/kg, 1 mg/kg intravenously, Mean, read-out: AUCInf Ratio (Brain/Plasma)): 0.8 | Kp at 0.083 h ([1]; CD-1, mouse, brain/plasma, iv, 1 mg/kg, 0.083 h, individual animals, read-out: Ratio (Brain/Plasma)): 1.17 | Kp at 0.083 h ([1]; CD-1, mouse, brain/plasma, iv, 1 mg/kg, 0.083 h, mean of 3 animals, read-out: Ratio (Brain/Plasma), Mean): 1.28 | Kp at 0.25 h ([1]; CD-1, mouse, brain/plasma, iv, 1 mg/kg, 0.25 h, individual animals, read-out: Ratio (Brain/Plasma)): 1.13 | Kp at 0.25 h ([1]; CD-1, mouse, brain/plasma, iv, 1 mg/kg, 0.25 h, mean of 3 animals, read-out: Ratio (Brain/Plasma), Mean): 1.15 | Kp at 1 h ([1]; CD-1, mouse, brain/plasma, iv, 1 mg/kg, 1 h, individual animals, read-out: Ratio (Brain/Plasma)): 0.8 | Kp at 1 h ([1]; CD-1, mouse, brain/plasma, iv, 1 mg/kg, 1 h, mean of 3 animals, read-out: Ratio (Brain/Plasma), Mean): 0.76 | Kp at 2 h ([1]; CD-1, mouse, brain/plasma, iv, 1 mg/kg, 2 h, individual animals, read-out: Ratio (Brain/Plasma)): 0.71 | Kp at 2 h ([1]; CD-1, mouse, brain/plasma, iv, 1 mg/kg, 2 h, mean of 3 animals, read-out: Ratio (Brain/Plasma), Mean): 0.67 | Kp at 4 h ([1]; CD-1, mouse, brain/plasma, iv, 1 mg/kg, 4 h, individual animals, read-out: Ratio (Brain/Plasma)): 0.74 | Kp at 4 h ([1]; CD-1, mouse, brain/plasma, iv, 1 mg/kg, 4 h, mean of 3 animals, read-out: Ratio (Brain/Plasma), Mean): 0.78 | Kp at 8 h ([1]; CD-1, mouse, brain/plasma, iv, 1 mg/kg, 8 h, individual animals, read-out: Ratio (Brain/Plasma)): 0.48 | Kp at 8 h ([1]; CD-1, mouse, brain/plasma, iv, 1 mg/kg, 8 h, mean of 3 animals, read-out: Ratio (Brain/Plasma), Mean): 0.52 | Cmax [1, 5]: 543 ng/g | Tmax [1, 5]: 4.8 min | MRT inf [1, 5]: 2.99 h | half-life [1, 5]: 2.8 h | AUC(0-inf) [1, 6]: 1200 ng·h/mL | AUC(0-t) [1, 6]: 980 ng·h/mL | C0 [1, 6]: 453 ng/mL | MRT inf [1, 6]: 4.37 h | half-life [1, 6]: 3.64 h | concentration at 0.083 h ([1]; CD-1, mouse, plasma, iv, 1 mg/kg, 0.083 h, individual animals, read-out: Plasma concentration): 460 ng/mL | concentration at 0.25 h ([1]; CD-1, mouse, plasma, iv, 1 mg/kg, 0.25 h, individual animals, read-out: Plasma concentration): 372 ng/mL | concentration at 1 h ([1]; CD-1, mouse, plasma, iv, 1 mg/kg, 1 h, individual animals, read-out: Plasma concentration): 229 ng/mL | concentration at 2 h ([1]; CD-1, mouse, plasma, iv, 1 mg/kg, 2 h, individual animals, read-out: Plasma concentration): 150 ng/mL | concentration at 4 h ([1]; CD-1, mouse, plasma, iv, 1 mg/kg, 4 h, individual animals, read-out: Plasma concentration): 96.4 ng/mL | concentration at 8 h ([1]; CD-1, mouse, plasma, iv, 1 mg/kg, 8 h, individual animals, read-out: Plasma concentration): 48.8 ng/mL | Brain concentration [1, 7]: 540.75 ng/g and 549.95 ng/g | Plasma concentration [1, 7]: 400.55 ng/mL and 416.19 ng/mL | Ratio (Brain/Plasma) [1, 7]: 1.35 and 1.32 | Brain concentration [1, 8]: 489.60 ng/g and 371.38 ng/g | Plasma concentration [1, 8]: 382.24 ng/mL and 384.54 ng/mL | Ratio (Brain/Plasma) [1, 8]: 1.35 and 0.97 | Brain concentration [1, 9]: 188.68 ng/g and 169.85 ng/g | Plasma concentration [1, 9]: 238.84 ng/mL and 249.07 ng/mL | Ratio (Brain/Plasma) [1, 9]: 0.79 and 0.68 | Brain concentration [1, 10]: 94.27 ng/g and 77.50 ng/g | Plasma concentration [1, 10]: 134.42 ng/mL and 131.84 ng/mL | Ratio (Brain/Plasma) [1, 10]: 0.70 and 0.59 | Brain concentration [1, 11]: 68.47 ng/g and 42.73 ng/g | Plasma concentration [1, 11]: 74.91 ng/mL and 63.17 ng/mL | Ratio (Brain/Plasma) [1, 11]: 0.91 and 0.88 | Brain concentration [1, 12]: 21.85 ng/g and 18.85 ng/g | Plasma concentration [1, 12]: 49.05 ng/mL and 29.91 ng/mL | Ratio (Brain/Plasma) [1, 12]: 0.45 and 0.83 | AUCInf [1, 13]: 872.43 ng·h/g | AUClast [1, 13]: 785.85 ng·h/g | Cl_obs [1, 14]: 13.85 mL/min/kg | Vss_obs [1, 14]: 3.63 L/kg | Relative tumor volume (x ± S) ([2]; 4.5 mg/kg i.v. QWx3, Day 17): 20.79 ± 1.15 | T/C (%) ([2]; 4.5 mg/kg i.v. QWx3, Day 17): 101.41% | TGI (%) ([2]; 4.5 mg/kg i.v. QWx3, Day 17): −1.41% | Tumor volume (x ± S) ([2]; 4.5 mg/kg i.v. QWx3, Day 17, in mm³ (unit assumed)): 2201.20 ± 287.44 | Tumor volume ([2]; Day 0): 103.98 mm^3 | Tumor volume ([2]; Day 3): 150.33 mm^3 | Tumor volume ([2]; Day 7): 318.74 mm^3 | Tumor volume ([2]; Day 10): 683.99 mm^3 | Tumor volume ([2]; Day 14): 1404.42 mm^3 | Tumor volume ([2]; Day 17): 2201.20 mm^3 | Tumor volume ([2]; Day 21): 2739.12 mm^3 | Tumor volume ([2]; Day 24): 3311.77 mm^3 | Tumor volume ([2]; Day 28): 3362.07 mm^3 | exposure ([3]; 1, 3, 6 mg/kg): dose proportional | survival ([3]; 1, 3, 6 mg/kg, until planned dissection): all animals survived | MTD at 14 days ([3]; both, monkey (machins), in vivo, iv): > 6 mg/kg | clearance ([3]; both, monkey (machins), plasma, iv): 22.3 to 45.3 mL/min/kg | clinical observation ([3]; females, 3 mg/kg and 6 mg/kg): slight erythema at the site of the administration | clinical observation ([3]; males and females, 6 mg/kg): Soft stools | Percentage remaining after 2 hours in plasma ([4]; Monkey plasma, 5 μM): 79.20% | remained in plasma after 2 hours ([4]; monkey plasma): 79.20%
